Experimental data reported in publication PMC9022229, “Induction of Paraptosis by Cyclometalated Iridium Complex-Peptide Hybrids and CGP37157 via a Mitochondrial Ca^2+ Overload Triggered by Membrane Fusion between Mitochondria and the Endoplasmic Reticulum” (Biochemistry, 2022).
Residues, ends and D or L forms follow the SMILES beside them. *: point of attachment. X1 = O=C(COc1ccc(-c2ccccn2)cc1)NCCCCCCCCN*

Legend:
Jurkat cells = assay: Intracellular uptake in Jurkat cells by ICP-MS; format: cell-based; details: 5 μM, 37 °C, 5% CO2, ICP-MS, n = 3
Procedure: The time-dependent intracellular uptake of 4 into Jurkat cells was measured by ICP-MS (inductively coupled plasma-mass spectrometry). Jurkat cells were treated with 4 (5 μM) for 30 min, 1 h, 2 h, and 3 h at 37 °C under 5% CO2, washed three times with PBS, and lysed with nitric acid at 4 °C overnight. The lysates were diluted with H2O, and the samples were analyzed by ICP-MS.
In a 1.5 mL Eppendorf tube, Jurkat cells (1.0 × 10^6 cells) were treated with 4 (5 μM) for 0–3 h at 37 °C under 5% CO2 (n = 3). After the cells had been washed three times with PBS, HNO3 (60%, 0.5 mL) was added to the cells and the resulting solutions were incubated overnight at 4 °C. After centrifugation (15000 rpm, 4 °C, 10 min), the supernatant was transferred to a 15 mL tube, diluted with H2O (4.5 mL), and filtered. The number of iridium atoms was measured by ICP-MS (NexION300S, PerkinElmer).

mitofusin 1 (MFN1) = assay: Western blot analysis of MFN1 in Jurkat cells; format: cell-based; details: for MFN1 band intensity relative to absence of compound: Figure S8B, 12 h
Procedure: In a 1.5 mL Eppendorf tube, Jurkat cells (1.0 × 10^6 cells) were incubated in the presence of 4 ([…]), CGP37157 (100 μM for 0–24 h or 0–100 μM for 12 h), and celastrol (0–10 μM for 24 h or 1 μM for 0–24 h) at 37 °C under 5% CO2. After the cells had been washed twice with PBS, the proteins were extracted by using RIPA buffer (Nacalai Tesque) and quantified using a Pierce BCA Protein Assay Kit (Thermo Scientific). Proteins (7.5 μg/well) for MFNs and DRP1 and proteins (5.0 μg/well) for GAPDH were used for sodium dodecyl sulfate–polyacrylamide gel electrophoresis (SDS–PAGE) (7.5% for MFNs and DRP1 and 10% for GAPDH) (Bio-Rad). After SDS–PAGE, the proteins were transferred to a polyvinylidene fluoride membrane (Merck Millipore) by using a semi dry blotter (Bio-Rad). The membrane was blocked with Blocking One solution (Nacalai Tesque) for 30 min at room temperature. After being blocked, the membrane was washed three times with 1× TBST and treated with primary antibodies overnight (at a dilution of 1/1000 for MFNs and DRP1 or 1/2000 for GAPDH) in a signal enhancer HIKARI-solution A (Nacalai Tesque). The membrane was washed three times with 1× TBST and treated with the anti-mouse or anti-rabbit IgG HRP-conjugated secondary antibody (at a dilution of 1/4000 for MFNs and DRP1 or 1/10000 for GAPDH) in 1× TBST for 60 min at room temperature. The protein signal was spotted with a Chemi-Lumi One Ultra solution (Nacalai Tesque) using the ChemiDoc MP system (Bio-Rad). […]

Row | Compound | Ir atom (intracellular amount) (Jurkat cells; 30 min) | Ir atom (intracellular amount) (Jurkat cells; 1 h) | Ir atom (intracellular amount) (Jurkat cells; 2 h) | Ir atom (intracellular amount) (Jurkat cells; 3 h) | Expression level of MFN1 (Figure 11B) (mitofusin 1 (MFN1); CGP37157 100 μM, 1–6 h) | MFN1 band intensity relative to absence of compound (mitofusin 1 (MFN1); CGP37157 10 µM) | MFN1 band intensity relative to absence of compound (mitofusin 1 (MFN1); CGP37157 20 µM) | MFN1 band intensity relative to absence of compound (mitofusin 1 (MFN1); CGP37157 50 µM) | MFN1 band intensity relative to absence of compound (mitofusin 1 (MFN1); CGP37157 80 µM) | MFN1 band intensity relative to absence of compound (mitofusin 1 (MFN1); CGP37157 100 µM)
1 | NCCCC[C@H](NC(=O)[C@H](CCCCN)NC(=O)[C@@H](N)CCCCN)C(=O)NCC(=O)NCC(=O)NCCCCCCCCNC(=O)COc1ccc(-c2ccccn2)cc1 [compound 4] (H-KKKGG-X1) | 0.64 ± 0.01 fmol/cell | 1.3 ± 0.1 fmol/cell | 1.2 ± 0.1 fmol/cell | 1.5 ± 0.4 fmol/cell |  |  |  |  |  | 
2 | O=C1CSC(c2ccccc2Cl)c2cc(Cl)ccc2N1 (stereo not shown) [CGP37157] |  |  |  |  | weakly changed | 1.1 | 1.1 | 0.92 | 0.80 | 0.63
